{"source": "patent US20040170591A1", "about": "“Dermatological composition comprising nicotinic acid or an amide, and a sphingoid base” (priority 2001, published 2004)", "system": "inflammatory acne of the face", "assay": "Clinical trial in patients with inflammatory acne of the face", "type": "in vivo, human patients", "settings": "10 patients 14 to 23 years old; benzoyl peroxide 4 cases, erythromycin 3 cases, nicotinamide gel 3 cases", "from_the_text": "The composition used is a gel in accordance with that whose composition is given in example 2.", "data": [{"smiles": "O=C(OOC(=O)c1ccccc1)c1ccccc1", "note": "[benzoyl peroxide]", "values": [{"measurement": "improvement of acne with conventional treatment", "value": "no notable improvement"}]}, {"smiles": "CC[C@H]1OC(=O)[C@H](C)[C@@H](O[C@H]2C[C@@](C)(OC)[C@@H](O)[C@H](C)O2)[C@H](C)[C@@H](O[C@@H]2O[C@H](C)C[C@H](N(C)C)[C@H]2O)[C@](C)(O)C[C@@H](C)C(=O)[C@H](C)[C@@H](O)[C@]1(C)O", "note": "[erythromycin]", "values": [{"measurement": "improvement of acne with conventional treatment", "value": "no notable improvement"}]}]}
